Assay results from publication PMC2628638, “Catalytic inhibition of topoisomerase II by a novel rationally designed ATP-competitive purine analogue” (BMC Chemical Biology, 2009).

Key:
[1] = tested on: HCC1937 BRCA1 mutant and HCC1937 BRCA1 reconstituted cells; assay: Clonogenic growth assay (WST-1, colony counting); format: cell-based; details: continuous treatment for 9 days, WST-1 and colony numbers
Procedure: HCC1937 BRCA1 mutant and HCC1937 BRCA1 reconstituted breast ductal carcinoma cells were cultured in RPMI-1640 medium supplemented with 10% fetal calf serum, 2 mM L-glutamine, 1 mM sodium pyruvate, 4.5 g/l glucose and 1% (v/v) penicillin/streptomycin. Status of BRCA1 was corroborated by immunoprecipitation using 50 μg nuclear extracts and 1 μg mouse monoclonal antibody MS110 (ab16780, Abcam Inc., Cambridge, MA), which is directed towards the amino-terminus of the protein. Blots were probed with BRCA1 carboxy-terminal specific mouse monoclonal antibody D9 (sc-6954, Santa Cruz Biotechnologies, Santa Cruz, CA) and, following stripping, re-probed with antibody MS110. For assays, 5000 cells in 3 ml medium were seeded per well of 6 well plates in duplicates. The day after, vehicle (DMSO) or compounds were added. After one week medium was exchanged and vehicle or compounds were re-added for an additional two days. To assess proliferation the medium in each well was replaced with 1 ml medium containing 100 μl WST-1 reagent and incubation for 20 minutes at 37°C. Of each sample 110 μl supernatant were transferred into a 96 well plate and the OD was read at 450 nm (filter at 630 nm) on a SpectraMax Plus microtiter plate reader using SoftMax Pro software (Molecular Devices). For background correction, the blank value consisted of 100 μl medium containing 10 μl WST-1. Thereafter, colonies were stained by removing medium, washing cells once with PBS and incubation with 1 ml crystal violet solution for 30 minutes at room temperature. Cells were washed twice with PBS and colonies were counted using an Artec Counter (Model 880, Artec, Dyntatech Laboratories Inc.) with diameter cut-off set to 0.2 mm. Data were expressed as growth or colony numbers relative to vehicle control treatments (100%).

topoisomerase II beta = target: T1, topoisomerase II beta (Homo sapiens, UniProt Q02880); assay: Affinity precipitation with biotinylated purine analogue 2 from HL-60 nuclear extracts; format: binding; details: for competition of the interaction of biotinylated purine analogue 2 with topoisomerase II beta: 1 μM biotinylated analogue 2, competitor in excess (10 μM), QAP 1 also at equimolar concentration
T1 construct: endogenous in cells; host or cells: HL-60 nuclear extract
T1 sequence (Q02880 whole entry): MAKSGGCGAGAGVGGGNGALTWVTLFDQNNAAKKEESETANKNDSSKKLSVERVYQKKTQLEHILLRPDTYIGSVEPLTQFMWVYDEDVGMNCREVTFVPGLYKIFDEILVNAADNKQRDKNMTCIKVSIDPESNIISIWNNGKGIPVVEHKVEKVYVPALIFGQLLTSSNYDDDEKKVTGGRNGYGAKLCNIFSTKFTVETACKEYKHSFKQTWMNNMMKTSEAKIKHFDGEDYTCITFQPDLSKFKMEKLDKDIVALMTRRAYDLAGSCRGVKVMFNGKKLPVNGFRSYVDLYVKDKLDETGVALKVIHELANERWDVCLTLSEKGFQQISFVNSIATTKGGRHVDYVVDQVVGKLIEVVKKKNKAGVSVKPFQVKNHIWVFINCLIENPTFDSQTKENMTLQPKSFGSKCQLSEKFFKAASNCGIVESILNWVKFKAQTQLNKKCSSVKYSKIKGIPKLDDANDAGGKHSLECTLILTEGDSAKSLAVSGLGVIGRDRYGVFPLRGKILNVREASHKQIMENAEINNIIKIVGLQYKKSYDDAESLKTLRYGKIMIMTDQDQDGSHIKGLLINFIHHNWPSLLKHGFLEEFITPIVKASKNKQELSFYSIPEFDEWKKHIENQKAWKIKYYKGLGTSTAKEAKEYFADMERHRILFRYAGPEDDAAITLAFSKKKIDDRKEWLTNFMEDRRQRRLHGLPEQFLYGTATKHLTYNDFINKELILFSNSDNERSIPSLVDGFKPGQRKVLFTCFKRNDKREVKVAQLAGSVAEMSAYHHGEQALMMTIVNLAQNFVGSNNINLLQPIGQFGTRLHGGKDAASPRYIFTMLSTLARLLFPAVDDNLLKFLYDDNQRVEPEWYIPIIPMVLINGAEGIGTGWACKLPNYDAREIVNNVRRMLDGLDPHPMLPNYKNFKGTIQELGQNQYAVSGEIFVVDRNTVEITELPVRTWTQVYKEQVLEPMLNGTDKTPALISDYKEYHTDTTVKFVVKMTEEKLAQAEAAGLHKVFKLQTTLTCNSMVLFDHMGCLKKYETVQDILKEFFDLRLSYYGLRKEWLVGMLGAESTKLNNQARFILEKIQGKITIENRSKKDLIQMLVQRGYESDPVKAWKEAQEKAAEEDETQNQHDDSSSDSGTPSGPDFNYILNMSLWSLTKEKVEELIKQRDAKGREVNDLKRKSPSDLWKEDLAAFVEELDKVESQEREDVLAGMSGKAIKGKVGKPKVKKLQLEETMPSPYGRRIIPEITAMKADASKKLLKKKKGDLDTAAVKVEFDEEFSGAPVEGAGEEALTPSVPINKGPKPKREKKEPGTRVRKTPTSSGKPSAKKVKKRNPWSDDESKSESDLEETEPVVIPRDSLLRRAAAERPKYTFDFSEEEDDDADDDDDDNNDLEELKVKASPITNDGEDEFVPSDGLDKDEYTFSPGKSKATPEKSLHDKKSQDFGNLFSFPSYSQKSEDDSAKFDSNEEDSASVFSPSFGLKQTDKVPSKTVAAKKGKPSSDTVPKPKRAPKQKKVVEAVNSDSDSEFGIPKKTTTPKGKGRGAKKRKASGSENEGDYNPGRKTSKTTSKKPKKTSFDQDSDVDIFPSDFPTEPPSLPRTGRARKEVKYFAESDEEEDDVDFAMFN
Procedure: (§1) Topoisomerase II α and β were affinity precipitated with biotinylated inhibitor as follows. Exponentially growing HL-60 cells were collected on ice and incubated with hypotonic buffer (10 mM HEPES pH 7.5, 1.5 mM MgCl2, 10 mM KCl, 0.5 mM DTT, 0.5 mM PMSF, 1× protease inhibitor cocktail (Complete Mini, Roche Diagnostics GmbH)) for 15 minutes, then 0.6% v/v NP-40 was added and cells were disrupted using a Dounce homogenizer. Lysates were transferred to 1.5 ml Protein LoBind Eppendorf tubes and nuclei were collected after centrifugation at 8000 rpm for 10 minutes and washed twice with hypotonic buffer. To extract and release chromatin associated topoisomerase II nuclei were incubated for 30 minutes in DNAse buffer (20 mM Tris HCl pH 7.5, 5 mM MgCl2, 1 mM CaCl2, 25 mM NaCl, 0.5 mM EDTA, 1% NP-40, 1 mM DTT, 1 × protease inhibitor cocktail, 0.1 mM PMSF) containing 40 U DNAse I (Roche Diagnostics GmbH) followed by addition of twice concentrated nuclear extraction buffer (20 mM HEPES pH 7.5, 3 mM MgCl2, 20 mM KCl, 50 mM β-glycerophosphate, 840 mM NaCl, 1 mM EDTA, 50 mM PNPP, 1 mM DTT, 1 mM PMSF) and rotation for 1 h in the coldroom. The soluble fraction was obtained following centrifugation at 13000 rpm for 15 minutes. 25 μg nuclear extract were used for the affinity precipitation. The salt concentration was adjusted to 150 mM with nuclear extraction buffer (without NaCl) and the sample volume was toped off to 200 μl with precipitation buffer (50 mM HEPES pH 7.4, 150 mM NaCl, 25 mM β-glycerophosphate, 25 mM NaF, 5 mM EGTA, 1 mM EDTA, 15 mM PPI, 1 mM PMSF). Compounds were preincubated for 30 minutes prior addition of biotinylated purine analogue 2 for 2 h. Streptavidin agarose beads (Novagen, 69203) were washed twice with PBS, blocked for 30 minutes with PBS containing 1% BSA, washed twice with PBS and finally with precipitation buffer. 40 μl equilibrated streptavidin agarose beads were added to the sample and incubation was continued for 1 h. Beads were pelleted by centrifugation at 7000 rpm for 5 minutes and washed thrice with precipitation buffer. During the last wash the beads were transferred to a new tube and the bound fraction was released by boiling for 5 minutes in Laemmli sample buffer. Topoisomerase II α and β were detected by Western blot as described below.

topoisomerase II alpha [2] = target: T2, topoisomerase II alpha (Homo sapiens, UniProt P11388); assay: as above; format: binding; design: endogenous in cells; host or cells: HL-60 nuclear extract; details: for competition of the interaction of biotinylated purine analogue 2 with topoisomerase II alpha: 1 μM biotinylated analogue 2, competitor in excess (10 μM), QAP 1 also at equimolar concentration
T2 sequence (P11388 whole entry): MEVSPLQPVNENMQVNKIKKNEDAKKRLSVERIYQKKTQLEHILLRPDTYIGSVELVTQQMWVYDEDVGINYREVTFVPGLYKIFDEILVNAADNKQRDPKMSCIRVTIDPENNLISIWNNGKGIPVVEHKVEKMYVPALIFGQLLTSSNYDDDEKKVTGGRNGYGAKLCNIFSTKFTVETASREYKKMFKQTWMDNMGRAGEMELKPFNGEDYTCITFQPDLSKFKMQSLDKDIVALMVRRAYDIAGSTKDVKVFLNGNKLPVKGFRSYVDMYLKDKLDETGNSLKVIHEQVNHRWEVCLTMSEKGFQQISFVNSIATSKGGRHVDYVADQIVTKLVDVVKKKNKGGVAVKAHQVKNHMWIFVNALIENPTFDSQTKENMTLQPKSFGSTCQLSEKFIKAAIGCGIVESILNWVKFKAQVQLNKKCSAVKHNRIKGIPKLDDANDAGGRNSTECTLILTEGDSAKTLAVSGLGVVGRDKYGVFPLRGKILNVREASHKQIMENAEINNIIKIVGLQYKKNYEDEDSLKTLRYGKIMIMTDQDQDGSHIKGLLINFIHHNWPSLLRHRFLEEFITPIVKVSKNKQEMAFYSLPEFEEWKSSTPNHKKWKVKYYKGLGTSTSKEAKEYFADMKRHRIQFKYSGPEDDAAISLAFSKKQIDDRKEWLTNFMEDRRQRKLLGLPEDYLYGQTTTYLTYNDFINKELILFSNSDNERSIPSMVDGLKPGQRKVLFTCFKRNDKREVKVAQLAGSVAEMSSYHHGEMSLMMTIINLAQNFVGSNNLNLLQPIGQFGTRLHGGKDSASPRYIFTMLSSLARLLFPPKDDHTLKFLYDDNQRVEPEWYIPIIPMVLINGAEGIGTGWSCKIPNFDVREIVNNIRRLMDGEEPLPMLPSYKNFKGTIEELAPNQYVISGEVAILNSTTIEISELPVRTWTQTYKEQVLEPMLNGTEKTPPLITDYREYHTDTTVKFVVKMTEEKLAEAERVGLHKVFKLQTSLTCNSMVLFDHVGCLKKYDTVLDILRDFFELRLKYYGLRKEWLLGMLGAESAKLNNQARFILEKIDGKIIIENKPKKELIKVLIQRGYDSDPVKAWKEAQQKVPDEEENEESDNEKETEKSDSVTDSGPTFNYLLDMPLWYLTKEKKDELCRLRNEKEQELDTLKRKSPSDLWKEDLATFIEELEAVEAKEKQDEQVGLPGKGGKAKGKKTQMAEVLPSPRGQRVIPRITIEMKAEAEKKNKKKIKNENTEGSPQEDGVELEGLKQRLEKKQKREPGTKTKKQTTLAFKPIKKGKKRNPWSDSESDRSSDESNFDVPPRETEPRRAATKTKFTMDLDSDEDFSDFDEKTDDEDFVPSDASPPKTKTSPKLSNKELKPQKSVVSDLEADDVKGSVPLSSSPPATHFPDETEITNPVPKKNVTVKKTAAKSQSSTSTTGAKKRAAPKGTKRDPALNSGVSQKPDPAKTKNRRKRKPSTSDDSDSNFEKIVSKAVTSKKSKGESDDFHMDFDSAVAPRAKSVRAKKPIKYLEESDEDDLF
Procedure: as §1

topoisomerase II alpha [3] = target: T2, topoisomerase II alpha; assay: DNA-dependent ATPase assay (malachite green); format: biochemical; design: screened in an ATPase assay using purified full length tagged human topoisomerase II alpha; made in house; host or cells: Sf21 insect cells, baculovirus (pFastBac1)
Procedure: DNA-dependent ATP hydrolysis of human topoisomerase II α was monitored by measuring the production of inorganic phosphate using acidic molybdate and malachite green. Specific ATPase activity of every batch was tested in a time-course to determine optimal incubation times and enzyme concentrations within the linear range of the assay. Reactions thus contained 10 – 40 nM topoisomerase II (dimer concentration) in reaction buffer (10 mM Tris HCl pH 7.5, 175 mM KCl, 0.1 mM EDTA, 5 mM MgCl2, 2 mM DTT, 2.5% glycerol and 1.7 nM supercoiled pUC18). The specific activity of the human topoisomerase II α enzyme measured in the ATPase assay was 0.24 μmol PO4·min^-1·mg^-1. […] Compounds at the indicated concentrations were added as serial dilutions prepared in DMSO and preincubated for 10 minutes at 37°C on an orbital shaker. Reactions were started by the addition of 400 μM ATP (Sigma, catalog number A2383) and allowed to proceed for 30 minutes. Reactions were terminated by the addition of 200 μl malachite green reagent and the OD was read immediately at 630 nm on a SpectraMax Plus microtiter plate reader using SoftMax Pro software (Molecular Devices). For kinetic analysis, reactions were carried out in duplicate as described above either in the presence of vehicle (DMSO) or QAP 1. Following a preincubation for 5 minutes, ATP was added at the indicated concentrations to start the reactions, which were allowed to proceed for 17 minutes before stopping and reading as above. From these values the OD values obtained at each respective ATP concentration without enzyme were subtracted for background correction. […] A compromise was found by carrying out the competition experiments with a single concentration of the inhibitor that gave a good inhibition of enzyme activity while keeping a measurable signal. The equations used to fit these experiments are: […]
Each competition experiment was fitted (Grafit version 5.04 – Erithacus Software) with these 3 equations and the models that gave unrealistic inhibition constants (above 10 mM) and/or large standard errors (similar to the value of the fitted parameter) were rejected. Then, the F-test was carried out to identify the best fitting model. An alternative method was used to determine the mode of action of the inhibitor. Dose-response experiments were carried out at different ATP concentrations and the corresponding IC50s determined. According to the Cheng-Prusoff equation for linear competitive inhibition: […]
The IC50 of a competitive inhibitive inhibitor should increase in a linear fashion with the concentration of ATP. The measured IC50s were then plotted in function of the ATP concentrations and linear regression analyses were carried out. […] Mean Km and Vmax values were calculated from two independent experiments.

[4] = 1 μM biotinylated compound, HL-60 nuclear extracts

For `C=CCNC1=C2C[C@@H](C)C[C@H](OC)[C@H](O)[C@@H](C)/C=C(\C)[C@H](OC(N)=O)[C@@H](OC)/C=C\C=C(/C)C(=O)NC(=CC1=O)C2=O` [17-AAG, reference compound], the “sensitivity of BRCA1 mutant versus BRCA1 reconstituted HCC1937 cells” value [1] was “to a similar extent”.

`CCc1nc2c(NC(C)(C)C)nc(Nc3ccc4nc(OCCN5CCN(C(=O)CCOCCOCCOCCNC(=O)CCCC[C@@H]6SC[C@@H]7NC(=O)N[C@@H]76)CC5)sc4c3)nc2[nH]1` [purine analogue 2] was tested, and the “pull down of topoisomerase II beta by biotinylated compound” value (topoisomerase II beta; [4]) was “pull down” and the “pull down of topoisomerase II alpha by biotinylated compound” value (topoisomerase II alpha [2]; [4]) was “pull down”.

With `CCc1nc2c(NC(C)(C)C)nc(Nc3ccc4ncsc4c3)nc2[nH]1` [purine analogue 3] the IC50 (topoisomerase II alpha [3]; full length tagged human topoisomerase II alpha, 400 μM ATP) was 432 ± 30 nM, the “competition of the interaction of biotinylated purine analogue 2 with topoisomerase II beta” value (topoisomerase II beta) was “lost” and the “competition of the interaction of biotinylated purine analogue 2 with topoisomerase II alpha” value (topoisomerase II alpha [2]) was “lost”.

With `CCc1nc2c(N3CCSCC3)nc(Nc3ccc4ncsc4c3)nc2[nH]1` [purine analogue 4] the “activity in the ATPase assays” value (topoisomerase II alpha [3]; result in words) was “inactive”, the “competition of the interaction of biotinylated purine analogue 2 with topoisomerase II beta” value (topoisomerase II beta) was “not” and the “competition of the interaction of biotinylated purine analogue 2 with topoisomerase II alpha” value (topoisomerase II alpha [2]) was “not”.
